Laboratory results published in ChEMBL document CHEMBL5257068, “Synthesis and biological evaluation of DIDS analogues as efficient inhibitors of RAD51 involved in homologous recombination” (Bioorg Med Chem Lett, 2023).

Legend:
[1] = tested on: DU-145; test: Cytotoxicity against human DU-145 cells overexpressing RAD51 assessed as cell viability at 1 uM incubated for 72 hrs by MTT assay relative to control; type: functional; conditions: read-out: Activity
[2] = biological target: T1, DNA repair protein RAD51 homolog 1 (Homo sapiens, UniProt Q06609); test: Inhibition of RAD51 (unknown origin) using labeled 100-ss DNA as substrate assessed as reduction in DNA D-loop formation by [gamma-32P]ATP based scintillation counter method
T1 sequence (Q06609 whole entry): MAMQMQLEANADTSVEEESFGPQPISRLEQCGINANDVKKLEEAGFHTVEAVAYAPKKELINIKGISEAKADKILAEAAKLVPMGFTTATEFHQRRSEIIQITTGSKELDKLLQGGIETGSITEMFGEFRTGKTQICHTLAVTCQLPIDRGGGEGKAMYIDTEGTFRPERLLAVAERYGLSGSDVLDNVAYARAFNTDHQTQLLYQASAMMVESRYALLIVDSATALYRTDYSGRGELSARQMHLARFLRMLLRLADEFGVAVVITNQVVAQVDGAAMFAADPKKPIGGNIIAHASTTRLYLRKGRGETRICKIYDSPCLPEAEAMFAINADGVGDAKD

[3] = tested on: DU-145; test: Cytotoxicity against human DU-145 cells overexpressing RAD51 assessed as cell viability at 10 uM incubated for 72 hrs by MTT assay relative to control; type: functional; conditions: read-out: Activity
[4] = tested on: DU-145; test: Cytotoxicity against human DU-145 cells overexpressing RAD51 assessed as cell viability at 50 uM incubated for 72 hrs by MTT assay relative to control; type: functional; conditions: read-out: Activity
[5] = biological target: T1, DNA repair protein RAD51 homolog 1; test: Inhibition of RAD51 (unknown origin) assessed as reduction in novel 58/33-dsDNA formation incubated for 1 hr by electrophoresis based DNA strand exchange assay
[6] = biological target: T1, DNA repair protein RAD51 homolog 1; test: Inhibition of wild type human RAD51 expressed in Escherichia coli BL21-DE3 using 100 bp ssDNA probe as substrate assessed as prevention of D-loop formation preincubated for 5 mins followed by plasmid DNA addition and measured after 15 mins by agarose gel electrophoresis method
[7] = biological target: T1, DNA repair protein RAD51 homolog 1; test: Inhibition of RAD51 (unknown origin) mediated homologous recombination

IC50 [2] [µM]	IC50 [5] [µM]	Structure (SMILES)	viability at 1 µM [1] [%]	viability at 10 µM [3] [%]	viability at 50 µM [4] [%]	also measured
20		N#Cc1ccc(/C=C/c2ccc([N+](=O)[O-])cc2S(=O)(=O)O)c(S(=O)(=O)O)c1	90	85	88	
> 50		N#Cc1ccc(CCc2ccc(C#N)cc2S(=O)(=O)O)c(S(=O)(=O)O)c1				
6.5	3	COc1ccc(C(=O)Nc2ccc(/C=C/c3ccc(NC(=O)c4ccc(OC)cc4)cc3S(=O)(=O)O)c(S(=O)(=O)O)c2)cc1			100	
	> 50	O=C(Nc1ccc(/C=C/c2ccc(NC(=O)c3ccccc3)cc2S(=O)(=O)O)c(S(=O)(=O)O)c1)c1ccccc1	100	100	100	
> 50		O=S(=O)(Nc1ccc(/C=C/c2ccc(NS(=O)(=O)c3ccccc3)cc2)cc1)c1ccccc1				
4.9	1.3	N#Cc1ccc(/C=C/c2ccc(C#N)cc2S(=O)(=O)O)c(S(=O)(=O)O)c1	99	94	100	
		O=c1c2ccccc2nc(/C=C/c2cccnc2)n1Cc1ccccc1	95	79	9	
> 50		CC(C)COC(=O)Nc1ccc(/C=C/c2ccc(NC(=O)OCC(C)C)cc2S(=O)(=O)O)c(S(=O)(=O)O)c1				
	> 50	CCC(=O)Nc1ccc(/C=C/c2ccc(NC(=O)CC)cc2S(=O)(=O)O)c(S(=O)(=O)O)c1				
21.5	10	[N-]=[N+]=Nc1ccc(/C=C/c2ccc(N=[N+]=[N-])cc2S(=O)(=O)O)c(S(=O)(=O)O)c1	87	94	93	IC50 [6]: 44.3 µM
		Cc1ccc(S(=O)(=O)Nc2ccc(/C=C/c3ccc(NS(=O)(=O)c4ccc(C)cc4)cc3S(=O)(=O)O)c(S(=O)(=O)O)c2)cc1	100	100	100	
30.5		O=C(Nc1ccc(/C=C/c2ccc(NC(=O)Oc3ccccc3)cc2)cc1)Oc1ccccc1				
	> 50	CC(=O)Nc1ccc(/C=C/c2ccc(NC(C)=O)cc2S(=O)(=O)O)c(S(=O)(=O)O)c1				
		O=C1C(Cl)=C(N2CCOCC2)C(=O)N1c1ccc(Cl)c(Cl)c1				IC50 [7]: 20 µM
30		O=C(Nc1ccc(CCc2ccc(NC(=O)Oc3ccccc3)cc2S(=O)(=O)O)c(S(=O)(=O)O)c1)Oc1ccccc1				
> 50		COS(=O)(=O)c1cc(NC(=O)Oc2ccccc2)ccc1/C=C/c1ccc(NC(=O)Oc2ccccc2)cc1S(=O)(=O)OC				
	> 50	CCOC(=O)Nc1ccc(/C=C/c2ccc(NC(=O)OCC)cc2S(=O)(=O)O)c(S(=O)(=O)O)c1				
> 50		O=[N+]([O-])c1ccc(S(=O)(=O)Nc2ccc(/C=C/c3ccc(NS(=O)(=O)c4ccc([N+](=O)[O-])cc4)cc3S(=O)(=O)O)c(S(=O)(=O)O)c2)cc1				

Structure (SMILES)	IC50 [2] [µM]	IC50 [5] [µM]	viability at 1 µM [1] [%]	viability at 10 µM [3] [%]	viability at 50 µM [4] [%]	also measured
O=C(Nc1ccc(/C=C/c2ccc(NC(=O)Oc3ccccc3)cc2S(=O)(=O)O)c(S(=O)(=O)O)c1)Oc1ccccc1	2.3	3.8	100	100	87	
[N-]=[N+]=Nc1ccc(/C=C/c2ccc(N=[N+]=[N-])cc2)cc1	> 50					
O=S(=O)(O)c1cc(N=C=S)ccc1/C=C/c1ccc(N=C=S)cc1S(=O)(=O)O	0.9	0.75	90	87	83	IC50 [6]: 0.9 µM
CC(=O)Nc1ccc(/C=C/c2ccc(N=C=S)cc2S(=O)(=O)O)c(S(=O)(=O)O)c1	29					IC50 [6]: 29 µM
O=[N+]([O-])c1ccc(/C=C/c2ccc([N+](=O)[O-])cc2S(=O)(=O)O)c(S(=O)(=O)O)c1	> 50					
O=S(=O)(O)c1cc(I)ccc1/C=C/c1ccc(I)cc1S(=O)(=O)O		17.5	91	89	84	
